≈ marks a conversion by molar mass, not a printed value.

In patent US5028427A, “"Cephalosporin" compounds” (Beecham Group p.l.c., priority 1987, dated 1991) one finds MIC data, which are given here for two molecules.

What all share (assay): MIC by serial dilution in nutrient agar
Common to all, as to assay type: cell-based

Assay [1] concerns Serratia marcescens HCN 3956. Conditions: HCN3956, nutrient agar (Oxoid), 10^4 colony forming units, overnight at 37° C.
The test system of another assay is Serratia marcescens US32. Conditions: Serratia marcescens US 32, nutrient agar (Oxoid), 10^4 colony forming units, overnight at 37° C.
For assay [2], the system named is Pseudomonas aeruginosa NCTC 10662. Conditions: NCTC10662, nutrient agar (Oxoid), 10^4 colony forming units, overnight at 37° C.
The subject of assay [3] is Staphylococcus aureus Oxford. Conditions: nutrient agar (Oxoid), 10^4 colony forming units, overnight at 37° C.
A further assay has as its system Enterobacter cloacae P99.

With `CCN1CCN(C(=O)NC(C(=O)NC2(NC=O)C(=O)N3C(C(=O)[O-])=C(C[n+]4ccccc4)CSC32)c2ccc(OC(C)=O)c(OC(C)=O)c2)C(=O)C1=O` [Compound A, 7β-[D-2-(3,4-diacetoxyphenyl)-2-[(4-ethyl-2,3-dioxopiperazin-1-yl)carbonylamino]acetamido]-7α-formamido-3-(pyridinium)methyl-ceph-3-em-4-carboxylate], the MIC in assay [1] stood at 16 mg/L (≈ 21.3 µM); with Serratia marcescens US32, 0.5 mg/L (≈ 0.665 µM); in assay [2], 2 mg/L (≈ 2.66 µM); in assay [3] it was 16 mg/L (≈ 21.3 µM); in the assay on Enterobacter cloacae P99 it was 8 mg/L (≈ 10.6 µM).

As for `CCN1CCN(C(=O)NC(C(=O)NC2(NC=O)C(=O)N3C(C(=O)[O-])=C(C[n+]4ccccc4)CSC32)c2ccc(O)c(O)c2)C(=O)C1=O` [Example 1, 7β-[D-2-(3,4-Dihydroxyphenyl)-2-[(4-ethyl-2,3-dioxopiperazin-1-yl)carbonylamino]acetamido]-7α-formamido-3-(pyridinium)methyl-ceph-3-em-4-carboxylate], the MIC in assay [1] worked out at 2 mg/L (≈ 3 µM); against Serratia marcescens US32 it was 0.12 mg/L (≈ 0.18 µM); in assay [2], 0.5 mg/L (≈ 0.749 µM); in assay [3], 8 mg/L (≈ 12 µM); against Enterobacter cloacae P99, 2 mg/L (≈ 3 µM).

One may read the MIC as the lowest concentration that inhibits growth of the organism. Higher therefore signals weaker potency.
